For test [1], the system named is recombinant Escherichia coli KO11. The test is described as follows: Batch fermentation of E. coli KO11 in 1% CSL medium and glucose with nutrient additives: ethanol production and cell growth. In kind it is cell-based. Conditions: for activity at 2000 µg/mL: Escherichia coli. The method, then:
(§1) Two types of media were tested: 1% CSL and Luria broth (LB). Each contained 97 g of either xylose or glucose per liter. Luria Broth consists of, per liter: 10 g Difco® Tryptone, 5 g Difco® Yeast Extract and 5 g NaCl. The 1% CSL medium consists of Corn Steep Liquor (1% w/v) plus mineral salts (mineral salts per liter: 1 g of KH2PO4. 0.5 g of K2HPO4, 3.1 g of (NH4)2SO4, 0.4 g of MgCl2·6H2), and 20 mg FeCl3·6H2O).
(§2) Luria Broth was prepared by autoclaving a 2× nutrient stock containing, per liter: 20 g Difco® Tryptone, 10 g Difo® Yeast Extract, and 10 g NaCl. Sugars (xylose or glucose) were autoclaved separately. A 1% CSL medium was prepared as follows: Commercial Corn Steep Liquor (CSL; 50% dry weight/50% water) was diluted with tap water to make a 20X stock containing 100 g dry weight of Corn Steep Liquor/L and was adjusted to pH 7.2 with NaOH (50%). After sterilization by autoclaving, the 20X CSL stock was clarified by centrifugation at 5000×g for 10 minutes. Magnesium was added as a 100× stock solution (40 g/L MgCl2·6H2O). Iron was added as a 1000× stock solution made by dissolving 20 g FeCl3·6H2O in 175 mL of HCl and adjusting to 1 L with sterile water. Nitrogen, sulfur and phosphorus were added using a 20× stock solution containing the following (per liter): 20 g of KH2PO4, 10 g of K2HPO4 and 62 g of (NH4)2SO4. Stock solutions containing minerals were sterilized separately by autoclaving. Final media was prepared by adding 750 mL of water to 1 L bottle containing 100 g of xylose or glucose.
(§3) Inocula were grown in same media used for fermentation and were prepared as follows. Three colonies from a fresh plate were used to inoculate seed cultures: 250-mL flask containing 100 mL medium. These cultures were grown with agitation (120 rpm) for 12-16 hours at 35° C. to a final OD550nm of approximately 2.0-2.5. Cells were harvested by centrifugation at 5000×g for 5 minutes, and resuspended in fresh media to an OD550nm of 0.1. The resulting suspension was distributed into 500-mL beakers containing 345 ml each of fermentation medium. Acetaldehyde was added as indicated. Batch fermentations (35° C., 100 rpm) were maintained at pH 6.5 by the automatic addition of 2N KOH. Cell mass, ethanol, and base addition (2N KOH) were recorded during 96 hours of incubation.
Equivalent amounts of distilled water were added instead of the acetaldehyde in control experiments.
(§4) Additives (e.g., as listed in Table 1) were dissolved in 5 mL di-H2O. Solutions with pH lower than 5 were neutralized to pH 6.5 with 2N KOH. Nutritional supplements were then filter-sterilized (0.45 μm filter disk) directly into the fermentation vessel containing the culture. The final concentration of all additives in the culture medium was 2 g/L unless otherwise indicated.
(§5) Cell mass was estimated by measuring OD550nm using Baush & Lomb® Spectronic 70 spectrophotometer. […] Ethanol was measured by gas chromatography using a Varian® 3400 CX gas chromatograph with 1-propanol as an internal standard.
(§6) Tables 1, 3, and 5 show time to completion of fermentation, ethanol production, and volumetric productivity of the fermentation for all concentrations of the compound and the control. Maximum ethanol production is shown in grams/liter (g/L). The ethanol yield is shown in grams of ethanol/grams of added sugar. Maximum volumetric productivity is shown in grams ethanol/(liter)(hour). The average productivity is calculated form the start of fermentation to the completion of fermentation is grams ethanol/(liter)hour).
Tables 2, 4, and 6 show the initial growth of the cells (OD taken after the first 24 hours of fermentation) and the maximum cell density (the time which culture reaches the maximum OD value).
Acetaldehyde was added to the fermentation medium at five different concentrations and time points. […] Where two additions are indicated, the first volume was added at the start of fermentation and the second was added after 8 hours of fermentation.

The test system is the same in test [2]. The test is described as follows: Batch fermentation of E. coli KO11 in 1% CSL medium and xylose with nutrient additives: ethanol production and cell growth. In kind it is cell-based. Particulars: for activity at 2000 µg/mL: Escherichia coli. The method, then: as §1, §2
as §3, with “incubation. […]” for “incubation.”
as §4, §5, §6
Tables 2, 4, and 6 show the initial growth of the cells (OD taken after the first 24 hours of fermentation) and the maximum cell density (the time which culture reaches the maximum OD value). […]

[3] abbreviates: 1% CSL+glucose, additive 2 g/L unless indicated.
The mark [4] stands for this setting: 1% CSL+xylose, additive 2 g/L unless indicated.
The mark [5] stands for this setting: 24 h, read-out: Initial Growth (OD @ 24 h) % Control, 1% CSL+glucose, additive 2 g/L unless indicated.
[6] abbreviates: read-out: Ethanol Production Maximum % Control, 1% CSL+glucose, additive 2 g/L unless indicated.
The mark [7] stands for this setting: read-out: Maximum Cell Density % Control, 1% CSL+glucose, additive 2 g/L unless indicated.
Where [8] appears, read: read-out: Volumetric Productivity Average % Control, 1% CSL+glucose, additive 2 g/L unless indicated.
[9] abbreviates: read-out: Volumetric Productivity Maximum % Control, 1% CSL+glucose, additive 2 g/L unless indicated.
[10] abbreviates: 24 h, read-out: Initial Growth (OD @ 24 h) % Control, 1% CSL+xylose, additive 2 g/L unless indicated.
The mark [11] stands for this setting: read-out: Ethanol Production Maximum % Control, 1% CSL+xylose, additive 2 g/L unless indicated.
[12] abbreviates: read-out: Maximum Cell Density % Control, 1% CSL+xylose, additive 2 g/L unless indicated.
The mark [13] stands for this setting: read-out: Volumetric Productivity Average % Control, 1% CSL+xylose, additive 2 g/L unless indicated.
Setting [14] is: read-out: Volumetric Productivity Maximum % Control, 1% CSL+xylose, additive 2 g/L unless indicated.

Turning to `O=C(O)CC(C(=O)O)C(O)C(=O)O` (centres unmarked) [Isocitrate], in test [1] (setting [3]), the “Ethanol Production Maximum” value is on record as 33.95 g/L, the Ethanol yield is reported as 0.349 grams of ethanol/grams of added sugar, the “Volumetric Productivity Average” value is 0.471 grams ethanol/(liter)(hour) and the “Volumetric Productivity Maximum” value is given as 0.588 grams ethanol/(liter)(hour). For the same compound, the activity at 2000 µg/mL in test [1] (read-out: Ethanol Production Maximum % Control) was 91.8%. In addition, the activity at 2000 µg/mL in test [1] (read-out: Volumetric Productivity Average % Control) came out at 122%. Further, in test [2] (setting [4]), the “Ethanol Production Maximum” value was found to be 33.02 g/L, the Ethanol yield was 0.340 grams of ethanol/grams of added sugar, the “Maximum Cell Density OD” value stood at 3.01 OD and the “Maximum Cell Density Time” value is listed as 96 h. In test [2] (setting [4]), the “Volumetric Productivity Average” value is 0.344 grams ethanol/(liter)(hour) and the “Volumetric Productivity Maximum” value is listed as 0.435 grams ethanol/(liter)(hour). Besides, in test [2] (read-out: Maximum Cell Density % Control), the activity at 2000 µg/mL was 119%. In addition, the activity at 2000 µg/mL in test [2] (read-out: Volumetric Productivity Maximum % Control) is 118%.
For `O=C(O)CC(O)(CC(=O)O)C(=O)O` [Citrate], the entries for the “Ethanol Production Maximum” value in test [1] (setting [3]) and in test [2] (setting [4]) were 32.87 g/L and 28.80 g/L, respectively. Moreover, the figures for the Ethanol yield in test [1] (setting [3]) and in test [2] (setting [4]) were 0.338 grams of ethanol/grams of added sugar and 0.296 grams of ethanol/grams of added sugar, respectively. The “Initial Growth (OD @ 24 h) OD” value worked out at 2.43 OD in test [1] (setting [3]) and 2.12 OD in test [2] (setting [4]). Moreover, the “Maximum Cell Density OD” value in test [1] (setting [3]) amounted to 2.58 OD; in test [2] (setting [4]) it was 2.47 OD. Also, the “Volumetric Productivity Average” value in test [1] (setting [3]) is on record as 0.342 grams ethanol/(liter)(hour); in test [2] (setting [4]), 0.300 grams ethanol/(liter)(hour). Further, the “Volumetric Productivity Maximum” value in test [1] (setting [3]) was 0.502 grams ethanol/(liter)(hour); in test [2] (setting [4]) it was 0.339 grams ethanol/(liter)(hour). Further, the activity at 2000 µg/mL in test [1] (setting [5]) worked out at 91%; in test [1] (setting [6]), 88.9%; in test [1] (setting [7]), 96%; in test [1] (setting [8]), 88.9%; in test [1] (setting [9]), 97.8%; in test [2] (setting [10]), 104%. The activity at 2000 µg/mL in test [2] (setting [11]) was found to be 95.7%; in test [2] (setting [12]) it was 98.1%; in test [2] (setting [13]), 95.7%; in test [2] (setting [14]), 92%. Moreover, the “Maximum Cell Density Time” value in test [2] (setting [4]) amounted to 96 h.
For the compound `O=C(O)CC(O)C(=O)O` (centres unmarked) [Malate, malate], the “Ethanol Production Maximum” value in test [1] (setting [3]) turned out to be 27.58 g/L; in test [2] (setting [4]), 24.43 g/L. In addition, the figures for the Ethanol yield in test [1] (setting [3]) and in test [2] (setting [4]) were 0.284 grams of ethanol/grams of added sugar and 0.252 grams of ethanol/grams of added sugar, respectively. The entries for the “Initial Growth (OD @ 24 h) OD” value in test [1] (setting [3]) and in test [2] (setting [4]) were 3.19 OD and 1.71 OD, respectively. The figures for the “Maximum Cell Density OD” value in test [1] (setting [3]) and in test [2] (setting [4]) were 3.39 OD and 2.42 OD, respectively. Also, the “Volumetric Productivity Average” value in test [1] (setting [3]) is listed as 0.287 grams ethanol/(liter)(hour); in test [2] (setting [4]), 0.255 grams ethanol/(liter)(hour). The results for the “Volumetric Productivity Maximum” value in test [1] (setting [3]) and in test [2] (setting [4]) were 0.498 grams ethanol/(liter)(hour) and 0.274 grams ethanol/(liter)(hour), respectively. For the same compound, the activity at 2000 µg/mL in test [1] (setting [5]) amounted to 119%; in test [1] (setting [6]) it was 74.6%; in test [1] (setting [7]), 126%; in test [1] (setting [8]), 74.6%; in test [1] (setting [9]), 97%; in test [2] (setting [10]), 83.9%. Besides, the activity at 2000 µg/mL was found to be 81.2% in test [2] (setting [11]), 96.3% in test [2] (setting [12]), 81.2% in test [2] (setting [13]) and 74.5% in test [2] (setting [14]). Moreover, the “Maximum Cell Density Time” value in test [2] (setting [4]) was determined as 96 h.
On to `O=C(O)/C=C/C(=O)O` [Fumarate], for which, in test [1] (setting [3]), the “Ethanol Production Maximum” value was 32.92 g/L, the “Ethanol Production Maximum % Control” value is listed as 88.98%, the Ethanol yield is listed as 0.339 grams of ethanol/grams of added sugar and the “Initial Growth (OD @ 24 h) % Control” value was determined as 99.76%. In test [1] (setting [3]), the “Initial Growth (OD @ 24 h) OD” value was found to be 2.67 OD, the “Maximum Cell Density % Control” value is 117.92%, the “Maximum Cell Density OD” value is listed as 3.17 OD and the “Maximum Cell Density Time” value was 72 h. In addition, in test [1] (setting [3]), the Time to completion is recorded as 96 h, the “Volumetric Productivity Average” value is on record as 0.343 grams ethanol/(liter)(hour), the “Volumetric Productivity Average % Control” value is recorded as 88.98% and the “Volumetric Productivity Maximum” value is given as 0.559 grams ethanol/(liter)(hour). Besides, the “Volumetric Productivity Maximum % Control” value in test [1] (setting [3]) was 108.88%. Also, in test [2] (setting [4]), the “Ethanol Production Maximum” value is reported as 28.49 g/L, the “Ethanol Production Maximum % Control” value turned out to be 94.73%, the Ethanol yield is given as 0.293 grams of ethanol/grams of added sugar and the “Initial Growth (OD @ 24 h) % Control” value came to 91.16%. In addition, in test [2] (setting [4]), the “Initial Growth (OD @ 24 h) OD” value turned out to be 1.86 OD, the “Maximum Cell Density % Control” value is 103.15%, the “Maximum Cell Density OD” value was 2.60 OD and the “Maximum Cell Density Time” value is recorded as 96 h. In test [2] (setting [4]), the Time to completion is recorded as more than 96 h, the “Volumetric Productivity Average” value was 0.297 grams ethanol/(liter)(hour), the “Volumetric Productivity Average % Control” value was found to be 94.73% and the “Volumetric Productivity Maximum” value was 0.345 grams ethanol/(liter)(hour). Besides, the “Volumetric Productivity Maximum % Control” value in test [2] (setting [4]) turned out to be 93.682%.

The values are drawn from patent US20020137154A1, “Methods for improving cell growth and alcohol production during fermentation” (priority 2000, published 2002).
